Patent US5859042A, “Five membered heterocyclic compounds” (Ono Pharmaceutical Co., Ltd., priority 1997, dated 1999)

Biological target: T1, 5α-reductase (Homo sapiens, UniProt P31213)
T1 construct: Frozen human prostates were thawed on ice and minced with scissors into small pieces; from tissue; host or cells: human prostate (frozen), washed 140,000×g membrane pellet
T1 sequence (P31213 1-254): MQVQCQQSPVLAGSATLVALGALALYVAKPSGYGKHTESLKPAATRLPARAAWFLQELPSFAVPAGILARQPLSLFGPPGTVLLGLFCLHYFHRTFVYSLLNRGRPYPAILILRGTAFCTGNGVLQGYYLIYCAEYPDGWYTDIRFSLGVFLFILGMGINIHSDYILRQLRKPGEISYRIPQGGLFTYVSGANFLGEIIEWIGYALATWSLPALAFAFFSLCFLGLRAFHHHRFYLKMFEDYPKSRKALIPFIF
Experiment: inhibitory activity on 5α-reductase from human prostates (conversion of 14C-testosterone to DHT)
Assay type: biochemical
Conditions: human prostatic 5α-reductase, pH 5.0, 1 μM 14C-testosterone, 1 mM NADPH, 30 min at 37° C.
Method: (1) Preparation of 5α-reductase from human prostates
Frozen human prostates were thawed on ice and minced with scissors into small pieces (~1 mm^3). The minced tissue was homogenized in 3 tissue volumes of ice cold medium A (20 mM potassium phosphate, pH 6.5, containing 0.32M sucrose, 1 mM dithiothreitol, 50 μM NADPH, 1 mM EDTA), first with a Brinkmann Polytron and then with a Dounce homogenizer. The homogenate was filtered through gauze and the filtrate was centrifuged at 140,000×g at 4° C. for 60 min. The resulting pellet was washed with 3 tissue volumes of medium A. The washed pellet was suspended (5-10 mg protein/ml) in 20 mM potassium phosphate, pH 6.5, containing 20% glycerol, 50 μM NADPH and 1 mM dithiothreitol. An appropriate aliquot of this suspension was used as the source of 5α-reductase.
5α-reductase activity was determined by following the conversion of testosterone to 5α-dihydrotestosterone (DHT). In brief, buffer (100 mM Tris-citrate, pH5.0), 1 mM NADPH and human prostatic 5α-reductase(0.4-1 mg protein) were placed in test tubes. After addition of test compounds (dissolved in 5 μl in DMSO or EtOH) or solvents to the tubes, the solutions were preincubated at room temperature for 10 min. The reactions were initiated by addition of 1 μM ^14 C-testosterone to a final volume of 0.5 ml. Following 30 min incubation at 37° C., the reactions were stopped by addition of 5 ml dichloromethane. After centrifugation at 1000 rpm for 5 min, the organic phase (bottom) was collected and the volume reduced to ~100 μl in a 42° C. water bath. The solutions were applied to silica plates and the plates were developed in chloroform/ethyl acetate (3:1) at room temperature. The radioactivity profiles were determined by a BIOSCAN imaging scanner. The silica in sections identified by BIOSCAN and counted in a scintillation counter. Enzyme activity was calculated from the percent of recovered radio label converted to the product DHT.

Row | Structure (SMILES) | IC50 (Table 1) [nM] | IC50 (Table 2) [nM]
1 | Cn1c(CC(=O)O)ccc1C(=O)CCCCc1ccccc1 [Example 3(22)] | 840 | –
2 | Cn1c(CC(=O)O)ccc1C(=O)c1ccc(C(C)(C)C)cc1 [t-butyl] | – | 400
3 | Cn1c(CC(=O)O)ccc1C(=O)c1ccc(-c2ccccc2)cc1 [Example 3(2)] | 19 | –
4 | Cn1c(CC(=O)O)ccc1C(=O)c1ccc2c(c1)C(=O)c1ccccc1-2 [Example 3(20)] | 130 | –
5 | Cn1c(C(=O)O)ccc1C(=O)c1ccc(-c2ccccc2)cc1 [Example 3(70)] | 170 | –
6 | Cn1c(CC(=O)O)ccc1C(=O)c1ccc(I)cc1 [iodo] | – | 440
7 | Cn1c(CC(=O)O)ccc1C(=O)c1ccc(-c2ccc(F)cc2)cc1 [Example 3(62)] | 41 | –
8 | Cn1c(CC(=O)O)ccc1C(=O)c1ccc(/C=C/c2ccccc2)cc1 [Example 3(47)] | 56 | –
9 | O=C(O)Cc1ccc(C(=O)c2ccc(-c3ccccc3)cc2)s1 [Example 3(18)] | 450 | –
10 | Cn1c(CC(=O)O)ccc1C(=O)c1ccc(C(=O)c2ccccc2)cc1 [Example 3(5)] | 210 | –
11 | Cn1c(CC(=O)O)ccc1C(=O)c1ccc(-c2ccc(Br)s2)cc1 [Example 3(55)] | 24 | –
12 | CC(C)Cc1ccc(C(=O)c2ccc(CC(=O)O)n2C)cc1 [isobutyl] | – | 74
13 | CCc1ccc(-c2ccc(C(=O)c3ccc(CC(=O)O)n3C)cc2)cc1 [Example 2] | 24 | –
14 | Cc1ccc(C(=O)c2ccc(CC(=O)O)n2C)cc1 [methyl] | – | 8000
15 | Cn1c(CC(=O)O)ccc1C(=O)c1ccc(-n2cccc2)cc1 [Example 3(50)] | 160 | –
16 | Cn1c(CC(=O)O)ccc1C(=O)c1ccc(-c2cc(Cl)cc(Cl)c2)cc1 [Example 3(82)] | 630 | –
17 | CCCCCCOc1ccc(C(=O)c2ccc(CC(=O)O)n2C)cc1 [hexyloxy] | – | 170
18 | Cn1c(CC(=O)O)ccc1C(=O)c1ccc(C2CCCCC2)cc1 [Example 3(1)] | 20 | –
19 | Cn1c(CC(=O)O)ccc1C(=O)c1ccc(OCc2ccccc2)cc1 [Example 3(8)] | 24 | –
20 | Cn1c(CC(=O)O)ccc1C(=O)c1ccc(-c2cccs2)cc1 [Example 3(54)] | 23 | –
21 | Cn1c(CC(=O)O)ccc1C(=O)c1ccc(CSc2ccccc2)cc1 [Example 3(41)] | 98 | –
22 | Cc1cc(OCc2ccccc2)ccc1C(=O)c1ccc(CC(=O)O)n1C [Example 3(16)] | 170 | –
23 | Cn1c(CC(=O)O)ccc1C(=O)C1CCC(c2ccccc2)CC1 (stereo not drawn) [Example 3(77)] | 250 | –
24 | Cc1cc(C(=O)c2ccc(CC(=O)O)n2C)ccc1-c1ccccc1 [Example 3(83)] | 92 | –
